# Data reported in paper PMC11793105, “A kalihinol analog disrupts apicoplast function and vesicular trafficking in P. falciparum malaria” (Science (New York, N.Y.), 2024).
# Columns and labels:
# [1] = system: 3D7 Clone-Kalihinol Treated (MED6-189 resistant line); test: SYBR Green dose response, MED6-189-selected resistant line; format: cell-based, Plasmodium falciparum; conditions: resistant line after ~36 months of drug pressure
# Text: (§1) To assess whether we could use the DMSO melting curves previously established for […] by Dziekan et al. ([49]), we calculated the difference in melting temperatures (ΔTm) between our DMSO dataset and Dziekan’s for 364 proteins for which Tm values were confidently calculated by mineCETSA (table S6).
# (§2) Fig. 4. […] (C) Schematic representation of the CRISPR-Cas9–based replacement strategy used to introduce a deletion of the targeted repeat regions in the PfSec13 gene. The insertion was achieved through overlap extension polymerase chain reaction (PCR) of fragments directly upstream and downstream of the target segment and subsequently formed by primer overlap extension PCR to replicate the desired deletion. […] (D) Predicted structure of the SEC13 protein highlighting the seven amino acid tandem repeat regions targeted for deletion (red). […] Data were analyzed using a Sigmoidal, 4PL (X represents concentration, n = 3, nonlinear regression, CI: 95%).
# (§3) P. falciparum in vitro SYBR green fluorescence-based assays The anti-malarial activity of individual analogues were evaluated in-vitro against P. falciparum 3D7 (MRA-102, drug […]
# green-I based fluorescence assay. Parasite growth rate and stages of development were determined via microscopy through Giemsa-stained smears of the cultures. […]
# [2] = system: synchronized P. falciparum 3D7 parasites; test: Parasitemia and asexual stage phenotype analyses; format: cell-based, Plasmodium falciparum; conditions: IC80, synchronized 3D7, second IEC
# Experimental: Fig. 1. […] (B) SYBR Green–based dose response assays were conducted on early-ring stage parasites (6 hours after invasion). […] 3D7 WT (blue), NF54 (green), drug-resistant strains Dd2 (red), HB3 (black), W2 (gray), and D10-ACP-GFP (purple) lines (Sigmoidal, 4PL, X is concentration, n ≥ 3, nonlinear regression, CI: 95%). (C) Schematic diagram of the development of P. falciparum after two consecutive erythrocytic cycles. The time points at which MED6-189 was introduced are depicted in green. HPS, hours post synchronization. […] The images depict various developmental stages of the parasite’s intraerythrocytic life cycle. Bordered images represent time points when drug was first introduced (n = 3 biological replicates, P < 0.05). […]
# Data analysis The percentage of parasitized erythrocytes was determined by enumerating the number of Hoechst positive events out of the total erythrocytes after excluding non-single cells by forward and side scatter. The percent survival was calculated by averaging the parasitemia in the triplicates for each condition and then dividing by the parasitemia observed in the wells that did not receive drug treatment. The IC50 was then calculated using GraphPad Prism 9 (GraphPad […]
# hrs. […] Parasitemia and proportion of the different asexual blood stages were determined by counting Giemsa-stained blood smears by light microscopy at every 12-hour time point. […]
# [3] = system: P. falciparum Pf3D70087/N9; test: In vivo efficacy, standard 4-day test in humanized mouse model of P. falciparum malaria; design: species or system NSG mice engrafted with human erythrocytes; conditions: 50 mg/kg orally, once a day for 4 days, from day 3 after infection; by the seventh day
# Text: NOD scid gamma (NSG) mice were intravenously engrafted with human red blood cells (hRBCs) daily until the percentage of hRBCs reached ~50%, at which point the mice were infected with 2 × 10^7 P. falciparum–infected erythrocytes.
# Peripheral blood from P. falciparum–infected mice was stained with TER-119-phycoerythrin (marker of murine erythrocytes) and SYTO-16 (nucleic acid dye) and then analyzed by flow cytometry (FACSCalibur, BD).
# Plasmodium falciparum-infected erythrocytes (P. falciparum Pf3D70087/N9).
# The mice were obtained from Charles River Labs, bred specifically for
# research and certified pathogen free.
# NSG mice were engrafted daily with human red blood cells intravenously injected in a final
# volume of 0.7 ml (50% hematocrit). Mice were engrafted during two weeks prior to P. falciparum
# infection, mice achieve around 60% of human red blood cells in mice peripheral blood.
# P. falciparum infections were performed by intravenous inoculation. All mice were randomly
# assigned to their corresponding treatment.
# mg/kg per day for four consecutive days. […] In all cases, parasitemia was assessed in samples from peripheral blood obtained at days 3, 4, 5, 6, and 7 after infection. Fresh samples of peripheral blood from P. falciparum-infected mice were stained with TER-119-Phycoerythrine (marker of murine erythrocytes) and SYTO-16 (nucleic acid dye) and then analyzed by flow cytometry (FACSCalibur, BD).
# [4] = system: P. falciparum 3D7 Clone / 3D7 Parental; test: SYBR Green dose response, cloned 3D7 control/parental lines of the resistance selection; format: cell-based, Plasmodium falciparum
# Text: as §1, §2, §3
# green-I based fluorescence assay. Parasite growth rate and stages of development were determined via microscopy through Giemsa-stained smears of the cultures. Serial dilutions of the compounds ranging from 10uM-0.5nM were prepared in 96-well plates (Corning, Costar 3904) followed by […]
# hematocrit added to each well. Eight wells were treated with vehicle control (DMSO) as control.
# Plates were incubated in a modular incubation chamber (Billups-Rothenberg, Del Mar, CA)
structure (smiles),measurement,setting,value
[C-]#[N+][C@]1(C)CC[C@H]2[C@@H]([C@@H](C(C)C)CC[C@]2(C)[N+]#[C-])[C@H]1O [MED6-189],IC50,[1]; 3D7 Clone-Kalihinol Treated,58.1 nM
same,IC50,"[1]; Plasmodium falciparum, 3D7, 3D7 Clone-Kalihinol Treated",~60 nM
same,effect on asexual intraerythrocytic development,[2],unable to fully undergo schizogony or reinvasion
same,reduction in parasitemia in the peripheral blood,[3],> 90%
same,IC50,"[4]; 3D7 Parental, drug-sensitive parental line",15 nM
same,IC50,"[4]; Plasmodium falciparum, 3D7, 3D7 Clone (drug sensitive)",13 nM
same,IC50,"[4]; Plasmodium falciparum, 3D7, 3D7 Parental, drug-sensitive parental line",~14 nM
